{
  "source": "patent US20140113342A1",
  "about": "“Production of 1,2-Propanediol in Cyanobacteria” (Algenol Biofuels Inc., priority 2012, published 2014)",
  "key": {"[1]": {"system": "Synechocystis sp. PCC 6803", "assay": "Tolerance testing to 1,2-propanediol added to culture medium", "type": "cell-based", "settings": "one week", "source_text": "(§1) The tolerance of cyanobacterial strains PCC 6803 and PCC 7002 to the presence of accumulated 1,2-propanediol in the culture medium was examined by adding a one time bolus of varying amounts of 1,2-propanediol (1%, 2%, 3% and 5%) to exponential phase cultures and comparing the growth of these cultures to a wild type culture with no addition. Growth was monitored by optical density (OD750) for one week. […] PCC 7002."}, "[2]": {"system": "Synechococcus sp. PCC 7002", "assay": "Tolerance testing to 1,2-propanediol added to culture medium", "type": "cell-based", "settings": "one week", "source_text": "as §1"}, "[3]": {"settings": "1%, 2%, 3% and 5% 1,2-propanediol"}, "[4]": {"settings": "up to 3% 1,2-propanediol, one time bolus to exponential phase culture"}},
  "data": [
    {"smiles": "CC(O)CO", "note": "(centres unmarked) [1,2-propanediol]", "values": [
      {"measurement": "lethal effect (complete bleaching)", "setting": "[1]; [3]", "result": "No lethal effect"},
      {"measurement": "growth of cultures (OD750) compared to wild type culture with no addition", "setting": "[1]; 5% 1,2-propanediol, one time bolus", "result": "less growth, discoloration and clumping"},
      {"measurement": "growth of cultures (OD750) compared to wild type culture with no addition", "setting": "[1]; [4]", "result": "no difference in the growth"},
      {"measurement": "lethal effect (complete bleaching)", "setting": "[2]; [3]", "result": "No lethal effect"},
      {"measurement": "growth of cultures (OD750) compared to wild type culture with no addition", "setting": "[2]; [4]", "result": "no difference in the growth"}
    ]}
  ]
}
